Experimental data from the supplement of paper PMC7394473.

Assays:
Conditions in all cases: 72 h
U2OS [1] = assay: drug GRADE (percent of response due to cell death) (% (0-100)); higher = more death-driven response
Protocol: (§1)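 U2OS cells treated with full dose titrations of drug; live and dead cells counted by STACK microscopy (mKate2 nuclei, SYTOX Green) at 72 h, biological triplicates. GR and FV dose responses were fitted with 4-parameter logistic models (GR lower bound -1). GRADE (0-100) is the rescaled angle of a linear fit of FV versus GR at doses with GR >= 0, giving the percentage of the response due to cell death.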

U2OS [2] = assay: fractional viability (live cells / total cells); higher = less cell death
Protocol: (§2)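 U2OS::Nuc-mKate2 cells seeded in 96-well plates and treated with eight- to ten-point half-log or log dilutions of drug in the presence of 50 nM SYTOX Green. Live (mKate2+) and dead (SYTOX+) cells were counted by IncuCyte STACK live-cell microscopy at 72 h; biological triplicates. GR is the normalised growth-rate inhibition value (Hafner 2016; 1 = untreated growth, <0 = population shrinking). FV is live/(live+dead) cells, not normalised.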

U2OS [3] = assay: FV IC50 (concentration giving fractional viability 0.5); higher = less potent killing
Protocol: as §1

U2OS [4] = assay: GRmin (fitted minimal GR value at highest effect) (GR value (dimensionless)); higher = less efficacious
Protocol: as §1

U2OS [5] = assay: GR50 (concentration giving GR = 0.5)
Protocol: as §1

U2OS [6] = assay: normalized growth rate inhibition value (GR) relative to untreated cells (GR value (dimensionless, 1 = untreated growth)); higher = less growth inhibition
Protocol: as §2

Row | Compound | drug GRADE (U2OS [1]) | fractional viability (U2OS [2]; 0.01 µM) | fractional viability (U2OS [2]; 0.0316 µM) | fractional viability (U2OS [2]; 0.1 µM) | fractional viability (U2OS [2]; 0.316 µM) | fractional viability (U2OS [2]; 1 µM) | fractional viability (U2OS [2]; 3.16 µM) | fractional viability (U2OS [2]; 10 µM) | fractional viability (U2OS [2]; 31.6 µM) | FV IC50 (U2OS [3]) | GRmin (U2OS [4]) | GR50 (U2OS [5]) | normalized growth rate inhibition value (U2OS [6]; 0.01 µM) | normalized growth rate inhibition value (U2OS [6]; 0.0316 µM) | normalized growth rate inhibition value (U2OS [6]; 0.1 µM) | normalized growth rate inhibition value (U2OS [6]; 0.316 µM) | normalized growth rate inhibition value (U2OS [6]; 1 µM) | normalized growth rate inhibition value (U2OS [6]; 3.16 µM) | normalized growth rate inhibition value (U2OS [6]; 10 µM) | normalized growth rate inhibition value (U2OS [6]; 31.6 µM) | further results
1 | COC(=O)c1ccc([C@H]2c3[nH]c4ccccc4c3C[C@H](C(=O)OC)N2C(=O)CCl)cc1 [RSL3] | 54.5 | 0.983 | 0.976 | 0.977 | 0.974 | 0.956 | 0.566 | 0.0831 | 0.00106 | 3.55 µM | -0.866 | 1.58 µM | 1.05 | 0.96 | 0.977 | 0.999 | 0.792 | -0.133 | -0.646 | -0.916 | –
2 | Cc1cc(Nc2ccc(NC(=O)c3ccc(Nc4ccnc5ccccc45)cc3)cc2)nc(N)n1 [SGI-1027] | 37.1 | 0.975 | 0.977 | 0.98 | 0.975 | 0.87 | 0.0651 | 0.00115 | 0.0226 | 1.62 µM | -0.799 | 1.15 µM | 0.952 | 1.02 | 0.932 | 0.948 | 0.642 | -0.651 | -0.88 | -0.717 | –
3 | CC[C@@H](C(=O)[C@@H](C)[C@@H](O)[C@H](C)[C@@H]1O[C@@H]([C@@H](CC)C(=O)O)CC[C@@H]1C)[C@H]1O[C@]2(C=C[C@@H](O)[C@]3(CC[C@@](C)([C@H]4CC[C@](O)(CC)[C@H](C)O4)O3)O2)[C@H](C)C[C@@H]1C [Salinomycin] | 59.9 | 0.982 | 0.975 | 0.977 | 0.955 | 0.899 | 0.725 | 0.722 | 0.322 | 17.5 µM | – | 2.41 µM | 1.07 | 0.992 | 0.814 | 0.77 | 0.63 | 0.405 | 0.316 | -0.253 | –
4 | CNc1cc(-c2cccc(Cl)c2Cl)nc(N)n1 [TH287] | 60 | 0.973 | 0.981 | 0.976 | 0.953 | 0.787 | 0.534 | 0.383 | 0.476 | 3.64 µM | -0.144 | 0.672 µM | 0.956 | 0.997 | 0.99 | 0.786 | 0.278 | 0.0764 | -0.106 | -0.187 | –
5 | CC(=O)O[C@H]1C(=O)[C@@]2(C)[C@H]([C@H](OC(=O)c3ccccc3)[C@]3(O)C[C@H](OC(=O)[C@H](O)[C@@H](NC(=O)c4ccccc4)c4ccccc4)C(C)=C1C3(C)C)[C@]1(OC(C)=O)CO[C@@H]1C[C@@H]2O [Taxol] | 75.6 | – | – | – | – | 0.44 | – | – | – | 0.577 µM | 0.104 | 0.0907 µM | – | – | – | – | 0.0877 | – | – | – | fractional viability (U2OS [2]; 0.000100578 µM): 0.991; fractional viability (U2OS [2]; 0.000317827 µM): 0.991; fractional viability (U2OS [2]; 0.00100433 µM): 0.991; fractional viability (U2OS [2]; 0.00317369 µM): 0.988; fractional viability (U2OS [2]; 0.0100289 µM): 0.98; fractional viability (U2OS [2]; 0.0316912 µM): 0.897; fractional viability (U2OS [2]; 0.100144 µM): 0.759; fractional viability (U2OS [2]; 0.316456 µM): 0.591; normalized growth rate inhibition value (U2OS [6]; 0.000100578 µM): 1.13; normalized growth rate inhibition value (U2OS [6]; 0.000317827 µM): 1.2; normalized growth rate inhibition value (U2OS [6]; 0.00100433 µM): 1.23; normalized growth rate inhibition value (U2OS [6]; 0.00317369 µM): 1.14; normalized growth rate inhibition value (U2OS [6]; 0.0100289 µM): 1.06; normalized growth rate inhibition value (U2OS [6]; 0.0316912 µM): 0.813; normalized growth rate inhibition value (U2OS [6]; 0.100144 µM): 0.461; normalized growth rate inhibition value (U2OS [6]; 0.316456 µM): 0.211
6 | COc1cc2nccc(Oc3ccc(NC(=O)Nc4cc(C)on4)c(Cl)c3)c2cc1OC [Tivozanib] | 7.57 | 0.977 | 0.982 | 0.98 | 0.977 | 0.977 | 0.949 | 0.229 | 0.0183 | 7.34 µM | -0.878 | 3.87 µM | 0.857 | 1.17 | 1.05 | 1.03 | 0.812 | 0.681 | -0.421 | -0.823 | –
7 | CC[C@@]1(O)C(=O)OCc2c1cc1n(c2=O)Cc2cc3c(CN(C)C)c(O)ccc3nc2-1 [Topotecan] | 9.92 | – | – | – | – | – | – | 0.444 | – | 7.66 µM | -0.0768 | 0.0151 µM | – | – | – | – | – | – | -0.295 | – | fractional viability (U2OS [2]; 0.00100578 µM): 0.985; fractional viability (U2OS [2]; 0.00317827 µM): 0.985; fractional viability (U2OS [2]; 0.0100433 µM): 0.978; fractional viability (U2OS [2]; 0.0317369 µM): 0.94; fractional viability (U2OS [2]; 0.100289 µM): 0.963; fractional viability (U2OS [2]; 0.316912 µM): 0.923; fractional viability (U2OS [2]; 1.00144 µM): 0.846; fractional viability (U2OS [2]; 3.16456 µM): 0.675; normalized growth rate inhibition value (U2OS [6]; 0.00100578 µM): 1.09; normalized growth rate inhibition value (U2OS [6]; 0.00317827 µM): 0.979; normalized growth rate inhibition value (U2OS [6]; 0.0100433 µM): 0.698; normalized growth rate inhibition value (U2OS [6]; 0.0317369 µM): 0.105; normalized growth rate inhibition value (U2OS [6]; 0.100289 µM): 0.14; normalized growth rate inhibition value (U2OS [6]; 0.316912 µM): 0.0543; normalized growth rate inhibition value (U2OS [6]; 1.00144 µM): -0.044; normalized growth rate inhibition value (U2OS [6]; 3.16456 µM): -0.147
8 | CC(C)[C@]12O[C@H]1[C@@H]1O[C@]13[C@]1(O[C@H]1C[C@H]1C4=C(CC[C@@]13C)C(=O)OC4)[C@@H]2O [Triptolide] | 8 | – | 0.18 | – | 0.155 | – | 0.154 | – | 0.159 | 0.0112 µM | -0.262 | 0.00421 µM | – | -0.197 | – | -0.249 | – | -0.267 | – | -0.258 | fractional viability (U2OS [2]; 3.16 pM): 0.981; fractional viability (U2OS [2]; 31.6 pM): 0.979; fractional viability (U2OS [2]; 0.000316 µM): 0.979; fractional viability (U2OS [2]; 0.00316 µM): 0.957; normalized growth rate inhibition value (U2OS [6]; 3.16 pM): 1.03; normalized growth rate inhibition value (U2OS [6]; 31.6 pM): 1.01; normalized growth rate inhibition value (U2OS [6]; 0.000316 µM): 0.928; normalized growth rate inhibition value (U2OS [6]; 0.00316 µM): 0.633
